Measurements from patent publication US20030040541A1, “Use of bismuth subgallate in inhibition of production of nitric oxide synthase” (Hedonist Biochemical Technologies Co., Ltd., priority 2001, published 2003).

System: RAW 264.7 cells
Experiment: NO production (nitrite, Griess reaction) by LPS/IFN-γ activated RAW 264.7 cells
Assay type: cell-based, mice
Conditions: 24 hours
Experimental: The cells of the mice macrophage cell line RAW 264.7 (under accession number CCRC 60001), which was obtained from Cell Culture Research Center, Food Industry Research and Development Institute, Hsinchu, Taiwan, R.O.C., were used for the test.
The RAW 264.7 cells were incubated in a 96 well tissue culture plate (Falcon). After 24 hours, the cells were activated with Dulbecco's Modified Eagle Medium (DMEM, 2014, GibcoBRL) in the presence and absence of 100 ng/ml LPS, 100 U/ml IFN-γ and various concentrations (10 μM, 20 μM, 50 μM, 100 μM and 200 μM) of bismuth subgallate (Hwang et al., 1994, J. Biol. Chem. 269, p. 711-715). After 24 hours, 50 μl of the supernatant from each well was assayed for the presence of nitrite through the Saville modification of the Griess reaction (Green et al., Analytical Biochem, 1982, 126:131-138). The results were represented by the means plus standard errors values (Mean±SE) of three repetitions.
The effect of borneol on the inhibition of NO synthase was tested through the same experimental procedures as described in Example 1. Various concentrations of borneol (0 μM, 40 μM, 80 μM, 160 μM, 320 μM and 640 μM) were used to replace bismuth subgallate of Example 1. The results were represented by the mean values of three repetitions with standard errors (Mean±SE).
The effect of bismuth subgallate in combination with borneol on the inhibition of NO synthase was tested through the similar experimental procedures as described in Example 1. The following concentrations of Bismuth subgallate: 0 μM, 12.5 μM, 25 μM, 50 μM and 100 μM, were combined with the following concentrations of borneol: 0 μM, 10 μM, 20 μM and 40 μM, respectively, to obtain the combinations for the replacement of bismuth subgallate used in Example 1. The results were represented by the mean values of three repetitions with standard errors (Mean±SE).

bismuth subgallate
NO production (nitrite concentration in supernatant) (bismuth subgallate 10, 20, 50, 100, 200 μM, 100 ng/ml LPS + 100 U/ml IFN-γ, FIG. 1): showed a reduction in nitrite concentration | concentration dependence of NO production (bismuth subgallate 10-200 μM, LPS + IFN-γ activated cells, FIG. 1): inversely proportional to the increase in the concentration of bismuth subgallate

CC1(C)C2CCC1(C)C(O)C2 (stereo not drawn) [borneol]
NO production (nitrite concentration in supernatant) (borneol 0, 40, 80, 160, 320, 640 μM, LPS + IFN-γ activated cells, FIG. 2): not significantly inhibited
